Data: patent US10071981B2, “Method of priming plants against abiotic stress factors” (Research Foundation of The City University of New York, priority 2014, dated 2018)

Tested on: Medicago truncatula plants
Experiment: Proline content (ninhydrin assay) in leaves of drought-stressed plants
Format: in vivo
Conditions: 100 μM, 30% (v/v) MetOH; vs drought-stressed alone samples; FIG. 6
Description: Mature (40 d) Medicago truncatula ecotype Jemalong A17 plants were used for the purposes of this study. These were grown in soil medium under controlled, optimal growth conditions and were then subjected to drought stress. Drought was imposed by withholding watering for 9 d (for detailed growth and stress conditions see Filippou et al., 2011). Both NOSH and NOSH-aspirin were applied at 100 μM concentration by foliar spraying at the start of stress imposition. The hybrid donors were diluted in 70% (v/v) and 30% (v/v) methanol, 20% (v/v) acetone or 20% (v/v) DMSO. Cellular damage was evaluated by lipid peroxidation levels (TBARS content) and hydrogen peroxide (H2O2) content as previously described (Filippou et al., 2011; Tanou et al., 2012), while osmoprotective capacity was evaluated by proline content (ninhydrin assay) as previously described (Antoniou et al., 2013). […] Relative quantification of gene expression and statistical analysis of all qRT-PCR data (pairwise fixed reallocation randomization test) were performed using the REST software according to Pfaffl et al. (2002). […] In addition, proline content was evaluated as proline is a major osmoprotective molecule involved in the defense response of plants to abiotic stress conditions (Filippou et al., 2013b).

**Q.** How did the proline content turn out when `O=C(CCCO[N+](=O)[O-])Oc1ccccc1C(=O)Oc1ccc(-c2cc(=S)ss2)cc1` [NOSH-A] was run?
**A.** increased proline content
